Several values for one entry are separate records, joined by “and”; a condition that tells them apart may be missing. Equal entries are not always repeated. Entries after “also recorded” stand apart in the source; their conditions may differ. Structures can show the parent of a compound that is named as a salt. Where two headings read alike, the source gives them in different places.
Columns and labels:
[1] = test system: K562 cells transfected with pMIG/BCR-ABL1p210; test: MTT cell proliferation assay, K562 cells transfected with pMIG/BCR-ABL1p210; assay type: cell-based, human; settings: for IC50: pMIG/BCR-ABL1p210 0.1 μg DNA, K562 cells, drug 48 h, read-out: IC50 (median-effect dose, MTT); for Resistance to the drug caused by wild-type BCR-ABL1p210 expression: K562 cells transfected with BCR-ABL1p210
Description: (§1) K562 cells were cotransfected with an increasing amount (0 to 100 ng) of plasmid pMIG/35 INS BCR-ABL and 100 ng of either pMIG/BCR-ABL1p210 or empty plasmid (pMIG). […] The effect of the drugs on cell proliferation was measured by MTT assay (FIG. 18A, right panel; mean±S.D; n=3). Dose response to cell death curves of K562 cells exposed to drugs were generated with the CalcuSyn® software package (Biosoft, Ferguson, MO) for each of at least three experiments.

[2] = test system: tyrosine kinase (TK) activity in K562 cells transfected with BCR-ABL1p210; test: Universal Tyrosine Kinase Assay on cell extract, K562 BCR-ABL1p210; assay type: cell-based, human; settings: relative to no-drug control, imatinib 1.2 μM, nilotinib 5 nM, dasatinib 5 nM, MK 0457 2 μM, homoharringtonine X μM
Description: (§2) K562 cells were cotransfected with increasing amounts of plasmid encoding pMIG/35 INS bcr-abl and either 100 ng of pMIG/BCR-ABL1p210 or the same amount of control vector (empty vector plasmid). […] Rabbit polyclonal IgG anti-Lyn, anti-Aurora A, and anti-Aurora B were obtained from Santa Cruz Biotechnology, (Santa Cruz, CA); rabbit polyclonal IgG anti-p-Src, anti-p-StatS, and anti-p-Crkl were obtained from Cell Signaling (Danvers, MA). Goat anti-rabbit PE (Santa Cruz Biotechnology) was used as the secondary antibody. LYN, p-CRKL, p-SRC, p-STATS, and Aurora A and B status were monitored. All experiments were repeated at least three times. Asterisk indicates p<0.05 relative to Control (empty vector).
(§3) Tyrosine kinase assay was performed using the Universal Tyrosine Kinase Assay Kit (GenWay Biotech, San Diego, CA) according to the manufacturer's instruction. The universal protein tyrosine kinase substrate peptide, Poly (Glu-Tyr) (4:1, 20-50 kDa) was pre-coated onto 96-well microtiter plates. Serial dilutions of prepared cell extract and 5-point standards (with known tyrosine kinase activities) were added to the plate in triplicates along with an ATP-containing kinase buffer. After incubation at 37° C. for 30 min to allow phosphorylation of tyrosine residues, the sample solution was removed and the wells washed with Washing buffer (PBS with 0.05% Tween-20) and blocked with Blocking solution. Anti-phosphotyrosine (PY20)-horse radish peroxidase (HRP) conjugate was then added to the plate. After incubation at 37° C. for 30 min, the PY20-HRP solution was replaced by HRP substrate solution (TMBZ). For colorimetric determination of PTK activity, the sample's specific absorbance at 450 nm was calculated from the standard curve.

[3] = test system: phosphorylation of CrkL, LYN, pSRC, pSTAT5, Aurora A and B in K562 cells; test: Phosphorylation of BCR-ABL substrates, K562 cells; assay type: cell-based, human
Description: (§4) The effect of a compound on the kinase activity of the BCR-ABL is assessed by monitoring tyrosine phosphorylation profile of the cellular proteins. […] Genetically modified cells comprising recombinant bcr-abl or variant so of bcr-abl including the splice variant are grown in presence of various amounts of a compound for treating CML patients. […] Amount of phosphorylated CrkL protein can be measured by using detectably labeled anti-phospho CrkL antibody. In one embodiment, the detectable label is phycoerythrin. The signal can be detected by Flow cytometer. Alternatively, the signal can be detected by Fluorescent Microtiter plate reader.
as §2, with “times.” for “times. Asterisk indicates p<0.05 relative to Control (empty vector).”

[4] = test system: K562 CML cells (empty vector); test: MTT cell proliferation assay, K562 cells with empty vector; assay type: cell-based, human; settings: for IC50: Empty vector pCMV/GFP, drug 48 h, read-out: IC50 (median-effect dose, MTT)
Description: The effect of the drugs on cell proliferation was measured by MTT assay (FIG. 18A, right panel; mean±S.D; n=3). Dose response to cell death curves of K562 cells exposed to drugs were generated with the CalcuSyn® software package (Biosoft, Ferguson, MO) for each of at least three experiments.

[5] = test system: tyrosine kinase (TK) activity in K562 cells (empty vector); test: Universal Tyrosine Kinase Assay on cell extract, K562 empty vector; assay type: cell-based, human; settings: relative to no-drug control, imatinib 1.2 μM, nilotinib 5 nM, dasatinib 5 nM, MK 0457 2 μM, homoharringtonine X μM
Description: as §2, §3

[6] = test system: tyrosine kinase (TK) activity in K562 cells transfected with BCR-ABL1 35INS; test: Universal Tyrosine Kinase Assay on cell extract, K562 BCR-ABL1 35INS; assay type: cell-based, human
Description: as §2, with “times.” for “times. Asterisk indicates p<0.05 relative to Control (empty vector).”
as §3

[7] = test system: K562 cells transfected with pMIG/35 INS bcr-abl; test: MTT cell proliferation/viability assay, K562 cells transfected with pMIG/35 INS bcr-abl; assay type: cell-based, human; settings: for IC50: read-out: IC50 (median-effect dose, MTT)
Description: as §1

[8] = test system: caspase-3 activation in K562 cells; test: Caspase-3 activation (apoptosis) assay in transfected K562 cells; assay type: cell-based, human; settings: for Effect of 35 INS BCR-ABL gene transfer on drug-induced caspase-3 activation: K562 cells transfected with 35 INS BCR-ABL
Description: To perform caspase assays, K562 cells were transiently transfected in 6-well dishes using the above procedure. […] Typically, 15-25 μg of lysates were analyzed for protease activity by continuously measuring the release of fluorogenic substrate Ac-DEVD-aminofluoromethylcoumarin product from EMD (San Diego, CA) at 37° C., as described (Capdeville et al., Nat. Rev. Drug Discov. 2002, 1:493).
Induction of apoptosis measured by caspase-3 activation (mean [SD]; n=3) in K562 cells transfected with the different plasmids as described above and shown in FIG. 18B.
(§5) Lysates were prepared at the times indicated and examined by caspase-3 assay (left) or by immunoblots using specific antibodies for BIM and actin (right) (see FIGS. 22A-22B).

[9] = test system: BIM expression in K562 cells; test: BIM induction by immunoblot in K562 cells; assay type: cell-based, human; settings: 24 to 48 hours' incubation
Description: as §5

CML patients = settings: cited from earlier work
[10] = test system: phosphorylation of CrkL and other substrates in K562 cells transfected with pMIG/35 INS bcr-abl; test: Phosphorylation of BCR-ABL substrates, K562 cells transfected with pMIG/35 INS bcr-abl; assay type: cell-based, human
Description: as §4
as §2, with “times.” for “times. Asterisk indicates p<0.05 relative to Control (empty vector).”

[11] = BCR-ABL1 35INS, relative to no-drug control, imatinib 1.2 μM, nilotinib 5 nM, dasatinib 5 nM, MK 0457 2 μM, homoharringtonine X μM

Row | SMILES | IC50 ([1]; Homo sapiens) [nM] | Relative tyrosine kinase activity [2] [%] | Effect on Aurora A and B [3] | IC50 ([4]; Homo sapiens) [nM] | Relative tyrosine kinase activity [5] [%] | Relative tyrosine kinase activity [6, 11] [%] | Resistance to the drug caused by wild-type BCR-ABL1p210 expression [1] | Effect of 35 INS BCR-ABL gene transfer on drug-induced caspase-3 activation [8] | Cell death in K562 cells [4] | further results
1 | Cc1nc(Nc2ncc(C(=O)Nc3c(C)cccc3Cl)s2)cc(N2CCN(CCO)CC2)n1 [Dasatinib, dasatinib] | 11 | 20.6 | no effect | 12 | 15.6 |  |  |  |  | 
2 | COC(=O)C[C@](O)(CCCC(C)(C)O)C(=O)O[C@@H]1C(OC)=C[C@]23CCCN2CCc2cc4c(cc2[C@H]13)OCO4 [HHT, homoharringtonine] | 54 | 79.2 |  | 63 | 59.8 | 75.4 |  |  |  | IC50 ([7]; Homo sapiens, K562, 48 h, pMIG/35 INS bcr-abl 0.01 μg DNA, K562 cells, drug 48 h): 61 nM; IC50 ([7]; Homo sapiens, K562, 48 h, pMIG/35 INS bcr-abl 0.05 μg DNA, K562 cells, drug 48 h): 49 nM; IC50 ([7]; Homo sapiens, K562, 48 h, pMIG/35 INS bcr-abl 0.1 μg DNA, K562 cells, drug 48 h): 54 nM
3 | Cc1ccc(NC(=O)c2ccc(CN3CCN(C)CC3)cc2)cc1Nc1nccc(-c2cccnc2)n1 [Imatinib, imatinib mesylate] |  |  |  |  |  |  | did not induce resistance | induced resistance; also recorded: increase was inhibited | induced cell death | Caspase-3 activation over time ([8]; CML K562 cells, continuous treatment): increased with time; BIM expression / induction [9]: expressed at increased levels; Primary resistance rate (failure to achieve any hematologic response) (CML patients; accelerated-phase CML): 9%; Secondary resistance rate (hematologic recurrence) (CML patients; accelerated-phase CML): 32%; Primary resistance rate (failure to achieve any hematologic response) (CML patients; blast-phase CML): 51%; Secondary resistance rate (hematologic recurrence) (CML patients; blast-phase CML): 41%; Primary resistance rate (failure to achieve any hematologic response) (CML patients; chronic-phase CML): 3%; Secondary resistance rate (hematologic recurrence) (CML patients; chronic-phase CML): 22%
4 | Cc1cc(Nc2cc(N3CCN(C)CC3)nc(Sc3ccc(NC(=O)C4CC4)cc3)n2)n[nH]1 [MK-0457] |  | 96.7 |  |  | 87.3 | 100 | did not induce resistance | did not affect the rate of caspase-3 activation |  | IC50 [1]: 1790 nM; Resistance to the drug caused by 35 INS BCR-ABL expression (MTT) ([7]; K562 cells transfected with pMIG/35 INS bcr-abl): did not induce resistance; IC50 ([7]; pMIG/35 INS bcr-abl 0.01 μg DNA, K562 cells, drug 48 h): 2000 nM; IC50 ([7]; pMIG/35 INS bcr-abl 0.05 μg DNA, K562 cells, drug 48 h): 1980 nM; IC50 ([7]; pMIG/35 INS bcr-abl 0.1 μg DNA, K562 cells, drug 48 h): 1540 nM; IC50 [4]: 1810 nM; Effect of 35 INS BCR-ABL expression on inhibition of kinases/phosphorylation by the drug [10]: no effect on inhibition
5 | Cc1cn(-c2cc(NC(=O)c3ccc(C)c(Nc4nccc(-c5cccnc5)n4)c3)cc(C(F)(F)F)c2)cn1 [Nilotinib, nilotinib] | 42 | 33.1 | no effect | 42 | 23.4 |  | did not induce resistance | induced resistance | induced cell death | Relative potency in induction of apoptosis (caspase-3 activation) ([8]; K562 cells): more potent than imatinib; Relative tyrosine kinase activity [6]: 76.2%; Increase of IC50 with pMIG/35 INS bcr-abl vector [7]: 1.7 fold; IC50 ([7]; Homo sapiens, K562, 48 h): 52 nM; IC50 [7]: 54 nM and 71 nM; Phosphorylation of CrkL, LYN, pSRC and pSTAT5 [3]: inhibited phosphorylation

— patent US12153049B2, “BCR-ABL variants” (Quest Diagnostics Investments LLC, priority 2008, dated 2024)
